Assay results published in patent US20140303144A1, “COMPOUNDS AND METHODS OF TREATING HYPERTENSION” (Medivation Technologies, Inc., priority 2011, published 2014).

Experiments:
[1] = biological target: T1, human recombinant adrenergic α2A receptor (Homo sapiens, UniProt P08913); experiment: Adrenergic α2A radioligand binding assay ([3H]MK-912); conditions: 0.1 μM compound; read-out: Percentage inhibition of ligand binding, Adrenergic α2A
T1 construct: expressed in transfected cells; host or cells: insect Sf9 cells
T1 sequence (P08913 1-465): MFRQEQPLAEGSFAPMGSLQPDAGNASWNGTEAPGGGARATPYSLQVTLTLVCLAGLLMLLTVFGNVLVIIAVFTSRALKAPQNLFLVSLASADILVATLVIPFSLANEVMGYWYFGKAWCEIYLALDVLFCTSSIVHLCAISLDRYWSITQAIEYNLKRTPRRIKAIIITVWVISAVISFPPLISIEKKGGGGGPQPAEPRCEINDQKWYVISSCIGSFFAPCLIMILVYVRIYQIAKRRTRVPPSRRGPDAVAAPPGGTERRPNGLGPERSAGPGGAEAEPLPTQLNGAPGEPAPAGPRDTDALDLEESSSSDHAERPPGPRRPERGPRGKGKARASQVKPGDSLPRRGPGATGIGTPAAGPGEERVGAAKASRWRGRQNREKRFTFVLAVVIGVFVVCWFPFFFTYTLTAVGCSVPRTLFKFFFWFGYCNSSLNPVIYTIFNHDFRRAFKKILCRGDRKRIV
Description: To evaluate in radioligand binding assays the activity of compounds of the invention, human recombinant adrenergic α2A receptor expressed in insect Sf9 cells (Uhlen, S. et al, J. Pharmacol. Exp. Ther. 271:1558, 1994) in a modified Tris-HCl buffer (50 mM Tris-HCl, pH 7.4, 12.5 mM MgCl2, 2 mM EDTA) was used. Compounds of invention were incubated with 1 nM [^3H]MK-912 for 60 min at 25° C. MK912 was (2S-trans)-1,3,4,5′,6,6′,7,12b-octahydro-1′,3′-dimethyl-spiro[2H-benzofuro[2,3-a]quinolizine-2,4′(1′H)-pyrimidin]-2′(3′H)-one hydrochloride Non-specific binding was estimated in the presence of 10 μM WB-4101 (2-(2,6-Dimethoxyphenoxyethyl)aminomethyl-1,4-benzodioxane hydrochloride). Receptor proteins were filtered and washed, the filters were then counted to determine [^3H]MK-912 specifically bound. Compounds were screened at 1 μM or lower, using 1% DMSO as vehicle. Compounds of the invention were tested in this biochemical assay and percent inhibition of specific binding was determined. Biochemical assay results are presented as the percent inhibition of specific binding in Tables B1A-B1D.

[2] = biological target: T2, rat adrenergic α1B receptor obtained from Wistar Rat liver (Rattus norvegicus, UniProt P15823); experiment: Adrenergic α1B radioligand binding assay ([3H]Prazosin); conditions: 0.1 μM compound; read-out: Percentage inhibition of ligand binding, Adrenergic α1B
T2 construct: rat adrenergic α1B receptor obtained from Wistar Rat liver; from tissue; host or cells: Wistar rat liver
T2 sequence (P15823 1-515): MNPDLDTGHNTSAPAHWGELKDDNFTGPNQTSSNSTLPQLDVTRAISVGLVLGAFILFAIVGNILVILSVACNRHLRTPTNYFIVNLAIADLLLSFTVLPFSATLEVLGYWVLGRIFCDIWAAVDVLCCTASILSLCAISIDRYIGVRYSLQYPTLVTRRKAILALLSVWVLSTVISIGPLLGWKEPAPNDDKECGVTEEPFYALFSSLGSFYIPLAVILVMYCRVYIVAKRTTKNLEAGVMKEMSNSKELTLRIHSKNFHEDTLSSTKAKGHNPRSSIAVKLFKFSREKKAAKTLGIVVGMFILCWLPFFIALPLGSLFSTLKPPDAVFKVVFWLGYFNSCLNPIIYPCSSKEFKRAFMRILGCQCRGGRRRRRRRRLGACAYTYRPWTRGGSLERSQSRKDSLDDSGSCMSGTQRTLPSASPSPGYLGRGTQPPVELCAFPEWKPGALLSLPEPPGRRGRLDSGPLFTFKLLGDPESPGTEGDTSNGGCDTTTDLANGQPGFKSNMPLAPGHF
Description: To evaluate in radioligand binding assays the activity of compounds of the invention, rat adrenergic α1B receptor obtained from Wistar Rat liver (Garcia-S'ainz, J. et al, Biochem. Biophys. Res. Commun. 186:760, 1992; Michel, A. et al, Br. J. Pharmacol. 98:883, 1989) in a modified Tris-HCl buffer (50 mM Tris-HCl buffer, pH 7.4, 0.5 mM EDTA) was used. Compounds of the invention were incubated with 0.25 nM [^3H]Prazosin for 60 min at 25° C. Non-specific binding was estimated in the presence of 10 μM phentolamine. Receptor proteins were filtered and washed, the filters were then counted to determine [^3H]Prazosin specifically bound. Compounds were screened at 1 μM or lower, using 1% DMSO as vehicle. Compounds of the invention were tested in this biochemical assay and percent inhibition of specific binding was determined. Biochemical assay results are presented as the percent inhibition of specific binding in Tables B1A-B1D.

[3] = biological target: T3, human recombinant adrenergic α2B receptor (Homo sapiens, UniProt P18089); experiment: Adrenergic α2B radioligand binding assay ([3H]Rauwolscine); conditions: 0.1 μM compound; read-out: Percentage inhibition of ligand binding, Adrenergic α2B
T3 construct: expressed in transfected cells; host or cells: CHO-K1 cells
T3 sequence (P18089 1-450): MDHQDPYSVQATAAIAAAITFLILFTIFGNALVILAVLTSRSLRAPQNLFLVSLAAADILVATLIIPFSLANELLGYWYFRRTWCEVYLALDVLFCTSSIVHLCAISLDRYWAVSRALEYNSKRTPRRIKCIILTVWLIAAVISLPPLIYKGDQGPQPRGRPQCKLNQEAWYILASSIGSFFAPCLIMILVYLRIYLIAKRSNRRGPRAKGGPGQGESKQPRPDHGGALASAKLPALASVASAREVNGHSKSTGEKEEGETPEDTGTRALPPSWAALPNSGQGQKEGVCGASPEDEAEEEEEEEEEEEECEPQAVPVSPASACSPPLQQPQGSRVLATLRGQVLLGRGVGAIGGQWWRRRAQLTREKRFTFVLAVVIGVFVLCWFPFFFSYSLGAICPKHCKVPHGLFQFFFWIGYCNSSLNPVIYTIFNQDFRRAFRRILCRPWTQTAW
Description: To evaluate in radioligand binding assays the activity of compounds of the invention, human recombinant adrenergic α2B receptor expressed in Chinese hamster ovary (CHO) K1 cells (Uhlen, S. et al, Eur. J. Pharmacol. 343(1):93, 1998) in a modified Tris-HCl buffer (50 mM Tris-HCl, pH 7.4, 12.5 mM MgCl2, 1 mM EDTA, 0.2% BSA) was used. Compounds of the invention were incubated with 2.5 nM [3H]Rauwolscine for 60 min at 25° C. Non-specific binding was estimated in the presence of 10 μM Prazosin. Receptor proteins were filtered and washed, the filters were then counted to determine [3H]Rauwolscine specifically bound. Compounds were screened at 1 μM or lower, using 1% DMSO as vehicle. Compounds of the invention were tested in this biochemical assay and percent inhibition of specific binding was determined. Biochemical assay results are presented as the percent inhibition of specific binding in Tables B1A-B1D.

Structure (SMILES) | inhibition at 0.1 µM [1] [%] | inhibition at 0.1 µM [2] [%] | inhibition at 0.1 µM [3] [%]
Cc1cc(C#Cc2ccc(C)nc2)c2c(c1)c1c(n2C)CCN(C)C1 [A12] | -4 | 2 | 6
Cc1cc(/C=C/c2ccc(C)nc2)c2c(c1)c1c(n2C)CCN(C)C1 [A14] | 12 | 0 | -3
Cc1cc2c3c(c1)c1c(n3CC(C)(c3ccc(C)nc3)OC(C)C2)CCN(C)C1 (stereo not drawn) [B160] | -1 | 2 | -8
Cc1cc2c3c(c1)c1c(n3C[C@@](C)(c3ccncc3)O[C@H]2C)CCN(C)C1 [B162] | 14 | -6 | 27
Cc1cc(-c2ccc(F)cc2)c2c(c1)c1c(n2C)CCN(C)C1 [A7] | 10 | 2 | -9
Cc1cc(C#Cc2ccncc2)c2c(c1)c1c(n2C)CCN(C)C1 [A17] | 14 | 9 | 21
Cc1cc2c3c(c1)c1c(n3C[C@](C)(c3ccncc3)O[C@H]2C)CCN(C)C1 [B163] | 5 | 6 | 4
Cc1cc(C#Cc2cccs2)c2[nH]c3c(c2c1)CN(C)CC3 [A8] | 20 | -3 | -1
Cc1ccc2c(c1)c1c3n2CC(c2ccncc2)=CCC3(C)CN(C)C1 (stereo not drawn) [D11] | 8 | 16 | 30
Cc1cc(CCc2ccc(C)nc2)c2c(c1)c1c(n2C)CCN(C)C1 [A13] | -12 | -9 | 5
Cc1cc2c3c(c1)c1c(n3CC(C)(c3ccncc3)OC(C)C2)CCN(C)C1 (stereo not drawn) [B165] | 40 | 0 | 43
C/C(=C\c1cc(C)cc2c3c(n(C)c12)CCN(C)C3)c1ccncc1 [A11] | 4 | -1 | 14
Cc1cc2c3c(c1)c1c(n3C(c3ccccc3)C2)CCN(C)C1 (stereo not drawn) [B12] | 75 | 28 | 72
Cc1ccc2c(c1)c1c3n2C(c2ccccc2)CCC3(C)CN(C)C1 (stereo not drawn) [D12] | 5 | 10 | -7
Cc1ccc2c(c1)c1c3n2C(c2ccccc2)=CCC3(C)CN(C)C1 (stereo not drawn) [D10] | -1 | -3 | -6
C/C(=C\c1cc(C)cc2c3c(n(C)c12)CCN(C)C3)c1ccc(C)nc1 [A15] | 20 | 0 | 21
Cc1cc(C#Cc2nccs2)c2[nH]c3c(c2c1)CN(C)CC3 [A16] | 31 | 1 | 17
Cc1ccc(C#Cc2cc(Cl)cc3c4c(n(C)c23)CCN(C)C4)cn1 [A18] | 6 | 30 | 38
Cc1cc(-c2ccncc2)c2c(c1)c1c(n2C)CCN(C)C1 [A9] | 0 | -9 | -7
C#Cc1cc(C)cc2c3c(n(C)c12)CCN(C)C3 [A10] | 23 | 11 | 8
